ChEMBL document CHEMBL1201862, “PubChem BioAssay data set” (2004)
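96-well plates; 48 h exposure; 5 concentrations. Endpoints by linear interpolation between flanking doses. Not reached: highest tested concentration assigned. GI50 marks 50% less growth.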 Activity calls are given as the source filed them. Cut-off read from the data, not from the text of the source: active = GI50 up to about 1.1 µM and inactive = higher.

Columns and labels:
Assay in all cases: NCI-60 cell line screen, 48 h
SF-539 = system: SF-539
MDA-MB-435 = system: MDA-MB-435
A498 = system: A498
SK-MEL-2 = system: SK-MEL-2
LOX IMVI = system: LOX IMVI
HOP-62 = system: HOP-62
CAKI-1 = system: CAKI-1
HCT-116 = system: HCT-116
U-251 = system: U-251
SF-295 = system: SF-295
SK-MEL-28 = system: SK-MEL-28
HOP-92 = system: HOP-92
M14 = system: M14
UACC-257 = system: UACC-257
RXF 393 = system: RXF 393
SK-OV-3 = system: SK-OV-3
PC-3 = system: PC-3
ACHN = system: ACHN
HT-29 = system: HT-29
UACC-62 = system: UACC-62

Measured: GI50

Cc1cc(C(F)(F)F)cc(-n2nc(NS(=O)(=O)c3cc(C)c(Cl)cc3S)nc2N)n1
inactive: SF-539 > 10 µM | MDA-MB-435 41.4 µM | A498 26 µM | SK-MEL-2 26.2 µM | LOX IMVI 18.7 µM | HOP-62 23.3 µM | CAKI-1 7.46 µM | HCT-116 33.7 µM | U-251 42.2 µM | SF-295 8.79 µM | SK-MEL-28 55.3 µM | HOP-92 32.7 µM | M14 54.1 µM | UACC-257 > 100 µM | RXF 393 > 100 µM | SK-OV-3 81.7 µM | PC-3 47.4 µM | ACHN 53.3 µM | HT-29 42 µM | UACC-62 29.5 µM

O=C(O)C(=O)Cc1ccc2c(c1)OCO2
inactive: SF-539 > 100 µM | MDA-MB-435 > 100 µM | A498 > 100 µM | SK-MEL-2 > 100 µM | LOX IMVI > 100 µM | HOP-62 > 100 µM | CAKI-1 > 100 µM | HCT-116 > 100 µM | U-251 > 100 µM | SF-295 > 100 µM | SK-MEL-28 > 100 µM | HOP-92 > 100 µM | M14 > 100 µM | UACC-257 > 100 µM | RXF 393 > 100 µM | SK-OV-3 > 100 µM | PC-3 > 100 µM | ACHN > 100 µM | HT-29 > 100 µM | UACC-62 > 100 µM

Cc1ccc(N)c(S)c1
inactive: SF-539 17.5 µM | MDA-MB-435 19 µM | A498 16.7 µM | SK-MEL-2 17.2 µM | LOX IMVI 16.4 µM | HOP-62 21.5 µM | CAKI-1 28.8 µM | HCT-116 32.1 µM | U-251 15.2 µM | SF-295 18 µM | SK-MEL-28 27.5 µM | HOP-92 16.6 µM | M14 16.9 µM | UACC-257 23.3 µM | RXF 393 16.8 µM | SK-OV-3 27.9 µM | PC-3 15.3 µM | ACHN 18.5 µM | HT-29 19.4 µM | UACC-62 17.6 µM

Cc1cccc2c1CC(C1OC(=O)c3ccccc31)C2=O (stereo not given)
inactive: SF-539 > 100 µM | MDA-MB-435 > 100 µM | A498 > 100 µM | SK-MEL-2 > 100 µM | LOX IMVI > 100 µM | HOP-62 > 100 µM | CAKI-1 > 100 µM | HCT-116 > 100 µM | U-251 > 100 µM | SF-295 > 100 µM | SK-MEL-28 > 100 µM | HOP-92 > 100 µM | M14 > 100 µM | UACC-257 > 100 µM | RXF 393 > 100 µM | SK-OV-3 > 100 µM | PC-3 > 100 µM | ACHN > 100 µM | HT-29 48.5 µM | UACC-62 > 100 µM

C/C=C\C(C)=C/C(C)C(=O)CC(O)CC1CC(=O)NC(=O)C1 (stereo not given)
inactive: SF-539 14 µM | MDA-MB-435 28.4 µM | A498 28.6 µM | SK-MEL-2 13.6 µM | LOX IMVI 20.6 µM | HOP-62 12.1 µM | CAKI-1 7.13 µM | HCT-116 16.4 µM | U-251 31.2 µM | SF-295 5.79 µM | SK-MEL-28 34.4 µM | HOP-92 72.8 µM | M14 13.6 µM | UACC-257 22.2 µM | RXF 393 17.1 µM | SK-OV-3 5.77 µM | PC-3 9.31 µM | ACHN 17.5 µM | HT-29 24 µM | UACC-62 9.73 µM

COc1ccc(N2C(=O)CC(=O)N(NC(=O)C(C)Oc3ccccc3C)C2=S)cc1 (stereo not given)
inactive: SF-539 > 100 µM | MDA-MB-435 > 100 µM | A498 > 100 µM | SK-MEL-2 > 100 µM | LOX IMVI > 100 µM | HOP-62 > 100 µM | CAKI-1 > 100 µM | HCT-116 > 100 µM | U-251 > 100 µM | SF-295 > 100 µM | SK-MEL-28 > 100 µM | HOP-92 > 100 µM | M14 > 100 µM | UACC-257 > 100 µM | RXF 393 > 100 µM | SK-OV-3 > 100 µM | PC-3 > 100 µM | ACHN > 100 µM | HT-29 > 100 µM | UACC-62 > 100 µM

CN1C(Cl)=NS(=O)(=O)c2ccccc21
inactive: SF-539 > 100 µM | MDA-MB-435 > 100 µM | A498 58.2 µM | SK-MEL-2 > 100 µM | LOX IMVI > 100 µM | HOP-62 > 100 µM | CAKI-1 16.9 µM | HCT-116 > 100 µM | U-251 > 100 µM | SF-295 > 100 µM | SK-MEL-28 > 100 µM | HOP-92 > 100 µM | M14 > 100 µM | UACC-257 > 100 µM | RXF 393 > 100 µM | SK-OV-3 > 100 µM | PC-3 > 100 µM | ACHN > 100 µM | HT-29 > 100 µM | UACC-62 > 100 µM

FC(F)(F)C1(c2ccccc2)SCc2nc3ccccc3n21 (stereo not given)
inactive: SF-539 > 100 µM | MDA-MB-435 40.6 µM | A498 > 100 µM | SK-MEL-2 > 100 µM | LOX IMVI 97.5 µM | HOP-62 > 100 µM | CAKI-1 > 100 µM | HCT-116 65.5 µM | U-251 > 100 µM | SF-295 > 100 µM | SK-MEL-28 > 100 µM | HOP-92 47.2 µM | M14 > 100 µM | UACC-257 > 100 µM | RXF 393 > 100 µM | SK-OV-3 > 100 µM | PC-3 83.6 µM | ACHN > 100 µM | HT-29 62.5 µM | UACC-62 > 100 µM

C1CCCCC2(CCCCCCCCC3(CCC1)OCCO3)OCCO2
inactive: SF-539 > 100 µM | MDA-MB-435 > 100 µM | A498 > 100 µM | SK-MEL-2 > 100 µM | LOX IMVI > 100 µM | HOP-62 > 100 µM | CAKI-1 > 100 µM | HCT-116 > 100 µM | U-251 > 100 µM | SF-295 > 100 µM | SK-MEL-28 > 100 µM | HOP-92 > 100 µM | M14 > 100 µM | UACC-257 > 100 µM | RXF 393 > 100 µM | SK-OV-3 > 100 µM | PC-3 > 100 µM | ACHN > 100 µM | HT-29 > 100 µM | UACC-62 > 100 µM

Cc1cc(N2CCCCC2)nc2ccc(Cc3ccc4nc(N5CCCCC5)cc(C)c4c3)cc12
inactive: SF-539 > 100 µM | MDA-MB-435 > 100 µM | A498 > 100 µM | SK-MEL-2 > 100 µM | LOX IMVI > 100 µM | HOP-62 > 100 µM | CAKI-1 > 100 µM | HCT-116 98.9 µM | U-251 > 100 µM | SF-295 > 100 µM | SK-MEL-28 > 100 µM | HOP-92 > 100 µM | M14 > 100 µM | UACC-257 53.6 µM | RXF 393 > 100 µM | SK-OV-3 > 100 µM | PC-3 > 100 µM | ACHN > 100 µM | HT-29 23.6 µM | UACC-62 > 100 µM
